Patent US7157099B2, “Sustained release pharmaceutical compositions for the parenteral administration of hydrophilic compounds” (Italfarmaco S.p.A., priority 2000, dated 2007)

Tests used:
[1] = male rats, 6 mg/rat of microemulsion of Example 11
Experimental: (§1) Plasma samples were taken before the administration of the compound and 0.5 hours, 24 hours, 4, 6 and 8 days after treatment.
(§2) Octreotide was extracted from plasma and analyzed with LC-MS-MS apparatus vs. a calibration curve.

in vivo = conditions: male, rat, plasma, 6 mg/rat
Experimental: as §1, §2

What does the source list for `C[C@@H](O)[C@@H]1NC(=O)[C@H](CCCCN)NC(=O)[C@@H](Cc2c[nH]c3ccccc23)NC(=O)[C@H](Cc2ccccc2)NC(=O)[C@@H](NC(=O)[C@H](N)Cc2ccccc2)CSSC[C@@H](C(=O)N[C@H](CO)[C@@H](C)O)NC1=O` [Octreotide]?
Time until which significant Octreotide plasma levels were found after treatment [1]: 8 days; level at 0.5 h (in vivo): 539 ng/mL; level at 24 h (in vivo): 40.2 ng/mL; level at 96 h (in vivo): 62.5 ng/mL; level at 144 h (in vivo): 4.5 ng/mL; level at 192 h (in vivo): 7.6 ng/mL
